Experimental findings from article PMC4437783, “An Improved Method for P2X7R Antagonist Screening” (PLoS ONE, 2015) are described below.

Format in all cases: cell-based
The target of assay [1] is T1, P2X7 receptor (mP2X7R) (Mus musculus, UniProt Q9Z1M0).
T1 construct: gene P2rx7; natively expressed in J774.G8 macrophages
T1 sequence (Q9Z1M0 1-595): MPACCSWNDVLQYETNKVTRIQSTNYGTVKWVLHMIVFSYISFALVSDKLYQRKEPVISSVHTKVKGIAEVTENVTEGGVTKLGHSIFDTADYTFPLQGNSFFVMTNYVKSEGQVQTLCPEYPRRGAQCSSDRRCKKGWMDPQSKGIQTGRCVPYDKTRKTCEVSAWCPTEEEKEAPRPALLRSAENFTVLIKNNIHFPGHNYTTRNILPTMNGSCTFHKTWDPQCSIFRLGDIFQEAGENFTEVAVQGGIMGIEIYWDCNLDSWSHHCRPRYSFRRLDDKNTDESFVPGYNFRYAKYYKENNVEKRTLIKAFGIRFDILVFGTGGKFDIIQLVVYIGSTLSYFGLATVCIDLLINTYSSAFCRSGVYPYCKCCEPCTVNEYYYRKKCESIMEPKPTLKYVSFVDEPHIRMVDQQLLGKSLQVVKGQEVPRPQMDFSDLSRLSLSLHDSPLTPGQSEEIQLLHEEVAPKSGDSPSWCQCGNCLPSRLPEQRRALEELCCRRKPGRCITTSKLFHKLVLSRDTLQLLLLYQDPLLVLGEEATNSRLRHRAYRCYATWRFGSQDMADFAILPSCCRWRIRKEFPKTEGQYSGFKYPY
Description: agonist dose-response, PI dye uptake in J774.G8 cells, plate reader.

A further assay deals with T2, P2X7 receptor (P2X7R) (Homo sapiens, UniProt Q99572).
T2 construct: gene P2RX7; native in U937 human monocyte cells
T2 sequence (Q99572 1-595): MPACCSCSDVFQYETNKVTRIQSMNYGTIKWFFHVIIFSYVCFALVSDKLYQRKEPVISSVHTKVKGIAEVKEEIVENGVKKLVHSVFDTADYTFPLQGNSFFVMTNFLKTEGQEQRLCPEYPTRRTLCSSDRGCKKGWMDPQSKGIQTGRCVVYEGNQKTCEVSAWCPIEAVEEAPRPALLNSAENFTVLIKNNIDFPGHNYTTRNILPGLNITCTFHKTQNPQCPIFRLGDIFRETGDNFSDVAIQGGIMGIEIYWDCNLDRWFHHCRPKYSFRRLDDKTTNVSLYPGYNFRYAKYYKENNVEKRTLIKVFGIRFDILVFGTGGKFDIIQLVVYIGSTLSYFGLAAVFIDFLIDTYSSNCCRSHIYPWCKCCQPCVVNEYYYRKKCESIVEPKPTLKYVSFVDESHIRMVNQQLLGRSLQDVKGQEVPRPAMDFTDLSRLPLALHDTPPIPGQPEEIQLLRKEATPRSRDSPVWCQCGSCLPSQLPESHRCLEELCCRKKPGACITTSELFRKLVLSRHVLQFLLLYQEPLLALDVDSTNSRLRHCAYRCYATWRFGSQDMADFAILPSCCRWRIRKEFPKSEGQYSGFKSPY
The experiment in a line: block of ATP-induced PI dye uptake in U937 cells at a single concentration ([…]).

In assay [2] the target is T1, P2X7 receptor (mP2X7R). The experiment in a line: block of ATP-induced PI dye uptake in J774.G8 cells at a single concentration ([…]).
The target in assay [3] is T1, P2X7 receptor (mP2X7R). The experiment in a line: inhibition of ATP-induced PI dye uptake in J774.G8 cells, plate reader.
Assay [4] addresses T1, P2X7 receptor (mP2X7R). Description: inhibition of ATP-induced dye uptake in J774.G8 cells, plate reader.

Usually EC50 stands for the concentration at which the effect is half-maximal. Read a low EC50 as higher potency in that assay. In turn, `Nc1ncnc2c1ncn2[C@@H]1O[C@H](COP(=O)(O)OP(=O)(O)OP(=O)(O)O)[C@@H](O)[C@H]1O` [ATP] came in with a 50% effective concentration (EC50) on P2X7 receptor (mP2X7R) [1] of 700 ± 70 µM.

For the molecule `O=C1CSC(=O)N1C(CCc1ccncc1)COc1ccc(-c2cccc([N+](=O)[O-])c2)cc1` (centres unmarked) [AZ, AZ11645373], the “block of ATP-induced PI dye uptake in U937 cells at a single concentration (10 μ)” value at P2X7 receptor (P2X7R) is given as “the treatment with the selective P2X7R antagonist AZ11645373 blocked the dye uptake”. Besides, the “block of ATP-induced PI dye uptake in J774.G8 cells at a single concentration (1)” value on P2X7 receptor (mP2X7R) [2] is given as “the treatment with the selective P2X7R antagonist AZ11645373 blocked the dye uptake”.

One may read the IC50 as the midpoint of a concentration-inhibition curve. Read a low IC50 as greater potency in that assay. As to `CCOc1ccc(Nc2ccc(/C(=C3C=C/C(=[N+](/CC)Cc4cccc(S(=O)(=O)[O-])c4)C=C/3C)c3ccc(N(CC)Cc4cccc(S(=O)(=O)O)c4)cc3C)cc2)cc1` [BBG, Brilliant Blue G], the IC50 on P2X7 receptor (mP2X7R) [3] lay within 1.3 to 2.6 µM.

`Nc1ncnc2c1ncn2[C@@H](C=O)O[C@@H](C=O)COP(=O)(O)OP(=O)(O)OP(=O)(O)O` [OATP, oxidized ATP] had an IC50 against P2X7 receptor (mP2X7R) [4] of 173 to 285 µM.
